Laboratory results taken from ChEMBL document CHEMBL4261654, “Synthesis and in vitro antitumor activity of novel alkenyl derivatives of pyridoxine, bioisosteric analogs of feruloyl methane” (Bioorg Med Chem, 2018).
Activity calls are given as the source filed them. The calls are words filed in the database; no cut-off is given here.

Key:
PC-3 [1] = test: Induction of apoptosis in human PC3 cells assessed as late apoptotic cells at 50 uM after 24 hrs by Annexin V-PE/7-AAD staining-based flow cytometric analysis (reference value: 8%); assay type: functional
MCF7 = test: Antiproliferative activity against human MCF7 cells after 72 hrs by MTT assay; assay type: functional, cell-based; conditions: MCF7, 72 h
HEK293 = test: Antiproliferative activity against human HEK293 cells after 72 hrs by MTT assay; assay type: cell-based; conditions: HEK293, 72 h
[2] = Antiproliferative activity against HSF cells after 72 hrs by MTT assay; assay type: cell-based; conditions: Homo sapiens
PC-3 [3] = test: Antiproliferative activity against human PC3 cells after 72 hrs by MTT assay; assay type: functional, cell-based; conditions: PC-3, 72 h
A498 = test: Antiproliferative activity against human A498 cells after 72 hrs by MTT assay; assay type: functional, cell-based; conditions: A498, 72 h
SNB-19 = test: Antiproliferative activity against human SNB19 cells after 72 hrs by MTT assay; assay type: functional, cell-based; conditions: SNB-19, 72 h
M14 = test: Antiproliferative activity against human M14 cells after 72 hrs by MTT assay; assay type: functional, cell-based; conditions: M14, 72 h
OVCAR-4 = test: Antiproliferative activity against human OVCAR4 cells after 72 hrs by MTT assay; assay type: functional, cell-based; conditions: OVCAR-4, 72 h
NCI-H322M = test: Antiproliferative activity against human NCI-H322M cells after 72 hrs by MTT assay; assay type: functional, cell-based
HCT-15 = test: Antiproliferative activity against human HCT15 cells after 72 hrs by MTT assay; assay type: functional, cell-based; conditions: HCT-15, 72 h
HCT-116 = test: Antiproliferative activity against human HCT116 cells after 72 hrs by MTT assay; assay type: functional, cell-based; conditions: HCT-116, 72 h
MDA-MB-231 = test: Antiproliferative activity against human MDA-MB-231 cells after 72 hrs by MTT assay; assay type: functional, cell-based; conditions: MDA-MB-231, 72 h
PC-3 [4] = test: Antiproliferative activity in human PC3 cells up to 50 uM measured during 120 hrs each 15 mins by RTCA DP based cellular impedance analysis; assay type: functional
PC-3 [5] = test: Antimigratory activity in human PC3 cells up to 50 uM measured during 120 hrs each 15 mins by RTCA DP based cellular impedance analysis; assay type: functional
PC-3 [6] = test: Antiproliferative activity in human PC3 cells at 2 to 10 uM measured during 120 hrs each 15 mins by RTCA DP based cellular impedance analysis; assay type: functional, cell-based
PC-3 [7] = test: Cell cycle arrest in human PC3 cells assessed as accumulation at G0/G1 phase at 10 uM after 72 hrs by RNase/propidium iodide staining-based flow cytometric analysis (reference value: 61 +/- 3%); assay type: functional
PC-3 [8] = test: Cell cycle arrest in human PC3 cells assessed as accumulation at S phase at 10 uM after 72 hrs by RNase/propidium iodide staining-based flow cytometric analysis (reference value: 17 +/- 1%); assay type: functional
PC-3 [9] = test: Cell cycle arrest in human PC3 cells assessed as accumulation at G2/M phase at 10 uM after 72 hrs by RNase/propidium iodide staining-based flow cytometric analysis (reference value: 20 +/- 3%); assay type: functional
PC-3 [10] = test: Cell cycle arrest in human PC3 cells assessed as accumulation at G0/G1 phase at 70 uM after 72 hrs by RNase/propidium iodide staining-based flow cytometric analysis (reference value: 61 +/- 3%); assay type: functional
PC-3 [11] = test: Cell cycle arrest in human PC3 cells assessed as accumulation at S phase at 70 uM after 72 hrs by RNase/propidium iodide staining-based flow cytometric analysis (reference value: 17 +/- 1%); assay type: functional
PC-3 [12] = test: Cell cycle arrest in human PC3 cells assessed as accumulation at G2/M phase at 70 uM after 72 hrs by RNase/propidium iodide staining-based flow cytometric analysis (reference value: 20 +/- 3%); assay type: functional
PC-3 [13] = test: Induction of apoptosis in human PC3 cells assessed as late apoptotic cells at 150 uM after 24 hrs by Annexin V-PE/7-AAD staining-based flow cytometric analysis (reference value: 8%); assay type: functional
[14] = Antioxidant activity assessed as ferric ion reducing activity at 20 to 320 umol after 20 mins by FRAP assay; assay type: functional
PC-3 [15] = test: Induction of apoptosis in human PC3 cells assessed as necrotic cells at 50 uM after 24 hrs by Annexin V-PE/7-AAD staining-based flow cytometric analysis (reference value: 14%); assay type: functional
PC-3 [16] = test: Induction of apoptosis in human PC3 cells assessed as early apoptotic cells at 50 uM after 24 hrs by Annexin V-PE/7-AAD staining-based flow cytometric analysis (reference value: 2%); assay type: functional
PC-3 [17] = test: Induction of apoptosis in human PC3 cells assessed as viable cells at 50 uM after 24 hrs by Annexin V-PE/7-AAD staining-based flow cytometric analysis (reference value: 70%); assay type: functional; conditions: PC-3, 24 h, read-out: Activity
PC-3 [18] = test: Induction of apoptosis in human PC3 cells assessed as necrotic cells at 150 uM after 24 hrs by Annexin V-PE/7-AAD staining-based flow cytometric analysis (reference value: 14%); assay type: functional
PC-3 [19] = test: Induction of apoptosis in human PC3 cells assessed as early apoptotic cells at 150 uM after 24 hrs by Annexin V-PE/7-AAD staining-based flow cytometric analysis (reference value: 2%); assay type: functional
PC-3 [20] = test: Induction of apoptosis in human PC3 cells assessed as viable cells at 150 uM after 24 hrs by Annexin V-PE/7-AAD staining-based flow cytometric analysis (reference value: 70%); assay type: functional; conditions: PC-3, 24 h, read-out: Activity
PC-3 [21] = test: Induction of mitochondrial membrane potential loss in human PC3 cells assessed as fluorescence intensity at 50 uM after 24 hrs by TMRE dye-based flow cytometric analysis (reference value: 10101 +/- 853); assay type: functional
PC-3 [22] = test: Induction of mitochondrial membrane potential loss in human PC3 cells assessed as fluorescence intensity at 150 uM after 24 hrs by TMRE dye-based flow cytometric analysis (reference value: 10101 +/- 853); assay type: functional
PC-3 [23] = test: Induction of apoptosis in human PC3 cells assessed as intracellular ROS levels by measuring fluoresence intensity at 50 uM after 24 hrs by DCFH-DA staining-based flow cytometric analysis (reference value: 3176 +/- 398); assay type: functional
PC-3 [24] = test: Induction of apoptosis in human PC3 cells assessed as intracellular ROS levels by measuring fluoresence intensity at 150 uM after 24 hrs by DCFH-DA staining-based flow cytometric analysis (reference value: 3176 +/- 398); assay type: functional

## COc1cc(/C=C/C(C)=O)ccc1O [DEHYDROZINGERONE]
PC-3 [1]
  Activity: 13%
MCF7
  IC50: 31 µM
HEK293
  IC50: 64 µM
[2]
  IC50: 176 µM
PC-3 [3]
  IC50: 68 µM
A498
  IC50: 125 µM
SNB-19
  IC50: 138 µM
M14
  IC50: 550 µM
OVCAR-4
  IC50: 139 µM
NCI-H322M
  IC50: 96 µM
HCT-15
  IC50: 65 µM
HCT-116
  IC50: 70 µM
MDA-MB-231
  IC50: 86 µM
PC-3 [4]
  inhibition (INH): 47%
PC-3 [5]
  inhibition (INH): 78%
PC-3 [6]
  Activity: inactive
PC-3 [7]
  Activity: 60%
PC-3 [8]
  Activity: 18%
PC-3 [9]
  Activity: 21%
PC-3 [10]
  Activity: 49%
PC-3 [11]
  Activity: 17%
PC-3 [12]
  Activity: 31%
PC-3 [13]
  Activity: 16%
[14]
  Activity: Active
PC-3 [15]
  Activity: 13%
PC-3 [16]
  Activity: 3%
PC-3 [17]
  viability at 50 µM: 70%
PC-3 [18]
  Activity: 16%
PC-3 [19]
  Activity: 3%
PC-3 [20]
  viability at 150 µM: 64%
PC-3 [21]
  Flu intensity: 7701
PC-3 [22]
  Flu intensity: 7859
PC-3 [23]
  Flu intensity: 2024
PC-3 [24]
  Flu intensity: 7502
